Where a name gives a salt, the structure may show the parent alone.
Biological target: T1, Cloned Human Serotonin Receptor, Subtype 7 (h5HT7) (Homo sapiens, UniProt P34969)
T1 construct: purchased PerkinElmer 6120512; host or cells: CHO cells (membranes coated on Basic FlashPlate SMP200)
Assay: Radioligand binding assay, cloned human serotonin receptor subtype 7 (h5HT7) expressed in CHO cells, [125I]LSD
Details: for IC50: [125I]LSD 0.82 nM, h5HT7 membranes from CHO cells, read-out: 5-HT7 IC50; for inhibition at 1 µM: compound at 10^−6 M, read-out: 5-HT7 %-Inhib. (10^−6 M)
Description: Radioligand binding assays were performed using the Cloned Human Serotonin Receptor, Subtype 7 (h5HT7), expressed in CHO cells, coated on Flashplate (Basic FlashPlate Cat.: SMP200) from PerkinElmer (Cat.: 6120512). The protocol assay was essentially the recommended protocol in the Technical Data Sheet by PerkinEmer Life and Analytical Sciences. The Mass membrane protein/well was typically 12 μg and the Receptor/well was about 9-10 fmoles. The Flashplate were let equilibrate at room temperature for one hour before the addition of the components of the assay mixture. The binding buffer was: 50 mM Tris-HCl, pH 7.4, containing 10 mM MgCl2, 0.5 mM EDTA and 0.5% BSA. The radioligand was [^125I]LSD at a final concentration of 0.82 nM. Nonspecific binding was determined with 50 μM of Clozapine. The assay volume was 25 μl. TopSeal-A were applied onto Flashplate microplates and they were incubated at room temperature for 240 minutes in darkness. The radioactivity were quantified by liquid scintillation spectrophotometry (Wallac 1450 Microbeta Trilux) with a count delay of 4 minutes prior to counting and a counting time of 30 seconds per well. Competition binding data were analyzed by using the LIGAND program (Munson and Rodbard, LIGAND: A versatile, computerized approach for characterization of ligand-binding systems. Anal. Biochem. 107: 220-239, 1980) and assays were performed in triplicate determinations for each point.

T1 sequence (P34969 whole entry): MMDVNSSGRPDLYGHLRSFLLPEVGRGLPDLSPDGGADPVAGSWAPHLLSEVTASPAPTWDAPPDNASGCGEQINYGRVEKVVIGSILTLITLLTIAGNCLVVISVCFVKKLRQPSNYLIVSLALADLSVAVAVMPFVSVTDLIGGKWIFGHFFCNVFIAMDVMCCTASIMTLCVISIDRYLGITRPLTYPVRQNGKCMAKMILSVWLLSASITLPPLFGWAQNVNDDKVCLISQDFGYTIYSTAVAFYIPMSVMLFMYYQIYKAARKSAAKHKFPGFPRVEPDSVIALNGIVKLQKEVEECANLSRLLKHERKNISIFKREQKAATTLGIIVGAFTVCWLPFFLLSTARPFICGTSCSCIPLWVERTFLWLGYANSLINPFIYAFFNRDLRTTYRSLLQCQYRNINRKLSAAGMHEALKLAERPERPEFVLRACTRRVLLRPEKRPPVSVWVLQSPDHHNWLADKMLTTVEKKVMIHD

SMILES	IC50 [nM]	inhibition at 1 µM [%]	inhibition at 0.1 µM (compound at 10^−7 M, read-out: 5-HT7 %-Inhib. (10^−7 M)) [%]
Cc1nn(C)c(C)c1-c1cccc2c1CC[C@H](N)C2 [Example O, (2S)-5-(1,3,5Trimethyl-1H-pyrazol-4-yl)-1,2,3,4-tetrahydro-naphthalen-2-ylamine dihydrochloride]	25 ± 3.8	79	47.2
Cc1nn(C)c(C)c1-c1cccc2c1CC[C@H](NC(C)C)C2 [Example P, (2S)-Isopropyl-[5-(1,3,5-trimethyl-1H-pyrazol-4-yl)-1,2,3,4-tetrahydro-naphthalen-2-yl]-amine]	587 ± 10	61.7	
Cc1nn(C)c(C)c1-c1cccc2c1CC[C@H](N(C)Cc1ccccc1)C2 [Example F, (2S)-Benzyl-methyl-[5-(1,3,5-trimethyl-1H-pyrazol-4-yl)-1,2,3,4-tetrahydro-naphthalen-2-yl]-amine]	187		

From US8097641B2, “Heterocyclyl substituted tetrahydronaphthalene derivatives as 5-HT7 receptor ligands” (Laboratorios del Dr. Esteve, S.A., priority 2007, dated 2012)
